Columns and labels:
5-HT3A receptor = biological target: T1, 5-HT3A receptor (Homo sapiens, UniProt P46098); experiment: [3H]granisetron competition binding, HEK293 membranes; conditions: for pKi (A): 0.7 nM [3H]granisetron, 10 mM HEPES pH 7.4, 4 °C, at least 24 h; for Ki: read-out: pKi (A) (converted)
T1 construct: gene HTR3A; homomeric (pentameric) receptor expressed recombinantly in HEK293 cells; cell membranes
T1 sequence (P46098 24-478): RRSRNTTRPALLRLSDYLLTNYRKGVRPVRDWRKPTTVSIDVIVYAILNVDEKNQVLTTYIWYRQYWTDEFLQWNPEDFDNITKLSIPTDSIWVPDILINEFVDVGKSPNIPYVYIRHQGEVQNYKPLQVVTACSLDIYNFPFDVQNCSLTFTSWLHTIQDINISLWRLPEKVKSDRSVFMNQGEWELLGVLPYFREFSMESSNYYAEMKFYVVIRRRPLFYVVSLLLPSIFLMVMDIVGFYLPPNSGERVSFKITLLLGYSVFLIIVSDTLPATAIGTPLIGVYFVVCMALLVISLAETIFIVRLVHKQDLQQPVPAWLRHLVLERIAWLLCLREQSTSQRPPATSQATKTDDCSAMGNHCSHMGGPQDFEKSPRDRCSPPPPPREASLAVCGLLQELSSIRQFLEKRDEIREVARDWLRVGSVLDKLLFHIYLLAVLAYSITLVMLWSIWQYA
From the text: [3H]granisetron competition binding, HEK293 membranes on 5-HT3A receptor

5-HT3AB receptor = biological target: T2, 5-HT3AB receptor (Homo sapiens, UniProt O95264+P46098); experiment: as above; conditions: for Ki: read-out: pKi (AB) (converted)
T2 construct: gene HTR3A; heteromeric (pentameric) receptor expressed recombinantly in HEK293 cells; cell membranes; sites at A+A- and possibly A+B- interfaces; with 5-hydroxytryptamine receptor 3B
T2 sequence (P46098 24-478): T1 sequence (P46098 24-478)
T2 sequence (O95264 22-441): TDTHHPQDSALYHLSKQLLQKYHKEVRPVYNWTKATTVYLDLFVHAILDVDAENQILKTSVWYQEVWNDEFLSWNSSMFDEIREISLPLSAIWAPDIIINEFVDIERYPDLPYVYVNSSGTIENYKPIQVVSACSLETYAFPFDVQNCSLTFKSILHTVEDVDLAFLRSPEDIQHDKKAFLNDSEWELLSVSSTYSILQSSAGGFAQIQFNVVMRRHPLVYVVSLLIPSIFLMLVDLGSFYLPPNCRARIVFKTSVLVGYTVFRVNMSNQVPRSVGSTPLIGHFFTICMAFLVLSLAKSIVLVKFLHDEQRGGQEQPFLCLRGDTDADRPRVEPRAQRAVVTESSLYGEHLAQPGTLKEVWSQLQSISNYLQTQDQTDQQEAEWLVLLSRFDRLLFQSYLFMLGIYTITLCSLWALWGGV
From the text: [3H]granisetron competition binding, HEK293 membranes on 5-HT3AB receptor

SMILES	pKi (A) (5-HT3A receptor)	Ki (5-HT3AB receptor)	Ki (5-HT3A receptor)	pKi (AB) (5-HT3AB receptor; 0.7 nM [3H]granisetron, 10 mM HEPES pH 7.4, 4 °C, at least 24 h)
CN1CCN(c2nc3ccccc3nc2Cl)CC1 [VUF10166, 2-chloro-3-(4-methylpiperazin-1-yl)quinoxaline]	9.82±0.26	12.6 nM	–	–
CN1CCN(c2nc3ccccc3[nH]c2=O)CC1 [compound 1, 3-(4-methylpiperazin-1-yl)quinoxalin-2-ol]	–	0.437 nM	1.17 nM	–
CCc1nc2ccccc2nc1N1CCN(C)CC1 [compound 6, 2-Ethyl-3-(4-methylpiperazin-1-yl)quinoxaline]	–	1.45 nM	0.631 nM	–
CN1CCN(c2cnc3cc(Cl)c(Cl)cc3n2)CC1 [compound 7, 6,7-Dichloro-2-(4-methylpiperazin-1-yl)quinoxaline]	–	8.51 nM	3.89 nM	–
CN1CCN(c2nc3ccccc3nc2N)CC1 [compound 10, 3-(4-Methylpiperazin-1-yl)quinoxalin-2-amine]	–	30.9 nM	2.95 nM	–
CN1CCN(c2nc3cc(Cl)c(Cl)cc3nc2Cl)CC1 [compound 11, 2,6,7-Trichloro-3-(4-methylpiperazin-1-yl)quinoxaline]	–	33.1 nM	8.13 nM	–
CN1CCN(c2nc3ccccc3nc2Br)CC1 [compound 14, 2-Bromo-3-(4-methylpiperazin-1-yl)quinoxaline]	–	1.41 nM	0.49 nM	–
CN1CCCN(c2nc3ccccc3nc2Cl)CC1 [compound 16, 2-Chloro-3-(4-methyl-1,4-diazepan-1-yl)quinoxaline]	–	4.57 nM	0.776 nM	–
CNC1CCN(c2nc3ccccc3nc2Cl)C1 (stereo not shown) [compound 18, 1-(3-Chloroquinoxalin-2-yl)-N-methylpyrrolidin-3-amine]	–	214 nM	204 nM	–
CN1CCCN(c2cnc3ccccc3n2)CC1 [compound 19, 2-(4-Methyl-1,4-diazepan-1-yl)quinoxaline]	–	33.1 nM	8.13 nM	–
CNC1CCN(c2cnc3ccccc3n2)C1 (stereo not shown) [compound 21, N-Methyl-1-(quinoxalin-2-yl)pyrrolidin-3-amine]	–	77.6 nM	32.4 nM	–
CN1CCN(c2nc3ccc(Cl)cc3[nH]c2=O)CC1 [compound 22, 7-chloro-3-(4-methylpiperazin-1-yl)quinoxalin-2(1H)-one]	–	7.24 nM	31.6 nM	–
CN1CCN(c2nc3ccc(Cl)cc3nc2Cl)CC1 [compound 23, 3,6-Dichloro-2-(4-methylpiperazin-1-yl)quinoxaline]	–	14.1 nM	1.12 nM	–
CN1CCN(c2cnc3ccccc3n2)CC1 [compound 24, 2-(4-methylpiperazin-1-yl)quinoxaline]	8.21±0.26	–	–	9.13±0.30
Cc1nc2ccccc2nc1N1CCN(C)CC1 [compound 26, 26]	–	3.8 nM	2.57 nM	–
CN1CCN(c2nc3ccccc3nc2C(F)(F)F)CC1 [compound 27, 27]	–	38 nM	44.7 nM	–
COc1nc2ccccc2nc1N1CCN(C)CC1 [compound 28, 28]	–	4.57 nM	0.661 nM	–
CCOc1nc2ccccc2nc1N1CCN(C)CC1 [compound 29, 29]	–	5.75 nM	1 nM	–
CN1CCN(c2nc3ccccc3nc2OC2CCCCC2)CC1 [compound 30, 30]	–	195 nM	537 nM	–
CN1CCN(c2nc3ccccc3nc2Oc2ccccc2)CC1 [compound 31, 31]	–	170 nM	87.1 nM	–
CN1CCN(c2nc3ccccc3nc2OCc2ccccc2)CC1 [compound 32, 32]	–	75.9 nM	129 nM	–
CN1CCN(c2cnc3cc(Cl)ccc3n2)CC1 [compound 33, 33]	–	102 nM	16.2 nM	–
CN1CCN(c2nc3cc(Cl)c(Cl)cc3[nH]c2=O)CC1 [compound 34, 34]	–	72.4 nM	50.1 nM	–

Reference: publication PMC4063337, “Structure–Activity Relationships of Quinoxaline-Based 5-HT3A and 5-HT3AB Receptor-Selective Ligands” (Chemmedchem, 2013)
